Source: US12220421B2, “Inhibitors of C. difficile spore germination” (THE BOARDS OF REGENTS OF THE NEVADA SYSTEM OF HIGHER …, priority 2021, dated 2025)
“Also recorded” adds a separate entry of the source. Like-named read-outs stand apart in the source and are kept apart here.

Legend:
[1] = tested on: C. difficile R20291 spores; conditions: literature, cited from earlier work
[2] = biological target: C. difficile spore germination; conditions: literature values; read-out: Ki, inhibition of germination; cited from earlier work
[3] = tested on: C. difficile 630 strain; conditions: literature, cited from earlier work; for IC50: read-out: IC50 against 630 strain
[4] = tested on: C. difficile R20291 spores; assay: C. difficile spore germination assay (optical density, OD580); conditions: 6 mM taurocholate, 12 mM glycine; for IC50 / activity at 125 µM: Clostridioides difficile, R20291SPORES; for activity at 125 µM / % Germination (125 μM): compound 125 μM
[5] = Incubation with feces / murine microbiota (degradation); format: in vitro ADME; conditions: 3 days incubation with feces
[6] = tested on: C. difficile 630 strain; assay: Spore germination inhibition against C. difficile 630 strain (literature); format: cell-based
[7] = read-out: % Germination (125 μM), Table 5, 100% indicates no inhibition
[8] = Table 5, 100% indicates no inhibition

For `C[C@H](CCC(=O)Nc1cccc(S(=O)(=O)O)c1)[C@H]1CC[C@H]2[C@@H]3[C@H](O)C[C@@H]4C[C@H](O)CC[C@]4(C)[C@H]3C[C@H](O)[C@]12C` [CamSA], the “Activity against R20291 strain” value ([1]; hypervirulent R20291 strain) is listed as “no inhibitory or prophylactic activity; also recorded: inactive”, the Ki [2] is listed as 50 µM and the IC50 [3] is listed as 58 µM. For the same compound, the “Activity against 630 strain” value [3] was “active”.

For `C[C@H](CCc1ncc2ccccc2n1)[C@H]1CC[C@H]2[C@@H]3[C@H](O)C[C@@H]4C[C@H](O)CC[C@]4(C)[C@H]3C[C@H](O)[C@]12C` [Compound 29], the IC50 ([4]; Table 3) was 22 ± 3 µM, the activity at 125 µM ([4]; read-out: % Germination, Table 3, ± standard deviation) was 17 ± 3% and the “Degradation on incubation with feces” value [5] was “not degraded”.

In the case of `C[C@H](CCC(=O)Nc1ccccc1)[C@H]1CC[C@H]2[C@@H]3[C@H](O)C[C@@H]4C[C@H](O)CC[C@]4(C)[C@H]3CC[C@]12C` [Compound 53], the IC50 ([4]; Table 5) is listed as 4 ± 0.5 µM, the activity at 125 µM [4, 7] is listed as 14 ± 0.6% and the “Activity against 630 strain” value [3] is listed as “inactive up to the maximum tested concentration”.

With `Cc1ccc(F)cc1NC(=O)CC[C@@H](C)[C@H]1CC[C@H]2[C@@H]3[C@H](O)C[C@@H]4C[C@H](O)CC[C@]4(C)[C@H]3CC[C@]12C` [Compound 56] the activity at 125 µM [4, 7] was 66 ± 6%.

Work on `C[C@H](CCC(=O)Nc1ccccc1)[C@H]1CC[C@H]2[C@@H]3CC[C@@H]4C[C@H](O)CC[C@]4(C)[C@H]3C[C@H](O)[C@]12C` [Compound 57] yielded an IC50 ([4]; Table 5) of 1.3 ± 0.1 µM and an activity at 125 µM [4, 7] of 3 ± 0.2%.

In the case of `COc1ccccc1NC(=O)CC[C@@H](C)[C@H]1CC[C@H]2[C@@H]3CC[C@@H]4C[C@H](O)CC[C@]4(C)[C@H]3CC[C@]12C` [Compound 58], the IC50 ([4]; Table 5) is reported as 2.4 ± 0.3 µM and the “% Germination (125 μM)” value [4, 8] is reported as 0.4 ± 3%.

`C[C@H](CCC(=O)Nc1cccc(F)c1)[C@H]1CC[C@H]2[C@@H]3CC[C@@H]4C[C@H](O)CC[C@]4(C)[C@H]3C[C@H](O)[C@]12C` [Compound 59] showed an activity at 125 µM [4, 7] of 59 ± 5%.

Compound `Cc1ccc(F)cc1NC(=O)CC[C@@H](C)[C@H]1CC[C@H]2[C@@H]3CC[C@@H]4C[C@H](O)CC[C@]4(C)[C@H]3C[C@H](O)[C@]12C` [Compound 60] has an activity at 125 µM [4, 7] of 65 ± 0.9%.

Work on `C[C@H](CCC(=O)Nc1ccccc1)[C@H]1CC[C@H]2[C@@H]3CC[C@@H]4C[C@H](O)CC[C@]4(C)[C@H]3CC[C@]12C` [Compound 61] yielded an activity at 125 µM [4, 7] of 100%.

For `COc1ccccc1NC(=O)CC[C@@H](C)[C@H]1CC[C@H]2[C@@H]3CC[C@@H]4C[C@H](O)CC[C@]4(C)[C@H]3CC[C@]12C` [Compound 62], the “% Germination (125 μM)” value [4, 8] was 100%.

In the case of `C[C@H](CCC(=O)Nc1cccc(F)c1)[C@H]1CC[C@H]2[C@@H]3CC[C@@H]4C[C@H](O)CC[C@]4(C)[C@H]3CC[C@]12C` [Compound 63], the activity at 125 µM [4, 7] is reported as 100%.

For `Cc1ccc(F)cc1NC(=O)CC[C@@H](C)[C@H]1CC[C@H]2[C@@H]3CC[C@@H]4C[C@H](O)CC[C@]4(C)[C@H]3CC[C@]12C` [Compound 64], the activity at 125 µM [4, 7] was 100%.

In the case of `C[C@H](CCC(=O)Nc1ccccc1)[C@H]1CC[C@H]2[C@@H]3[C@@H](O)C[C@@H]4C[C@H](O)CC[C@]4(C)[C@H]3CC[C@]12C` [Compound 65], the activity at 125 µM [4, 7] is reported as 57 ± 0.8%.

Compound `COc1ccccc1NC(=O)CC[C@@H](C)[C@H]1CC[C@H]2[C@@H]3[C@@H](O)C[C@]4(C)C[C@H](O)CC[C@]4(C)[C@H]3CC[C@]12C` [Compound 66] has an activity at 125 µM [4, 7] of 100%.

`C[C@H](CCC(=O)Nc1cccc(F)c1)[C@H]1CC[C@H]2[C@@H]3[C@@H](O)C[C@]4(C)C[C@H](O)CC[C@]4(C)[C@H]3CC[C@]12C` [Compound 67] gave an activity at 125 µM [4, 7] of 100%.

`Cc1ccc(F)cc1NC(=O)CC[C@@H](C)[C@H]1CC[C@H]2[C@@H]3[C@@H](O)C[C@@H]4C[C@H](O)CC[C@]4(C)[C@H]3CC[C@]12C` [Compound 68] showed an activity at 125 µM [4, 7] of 100%.

In the case of `C[C@H](CCC(=O)Nc1ccccc1)[C@H]1CC[C@H]2[C@@H]3CCC4CCCC[C@]4(C)[C@H]3CC[C@]12C` (stereo partly drawn) [N-(Phenyl)-cholan-24-amide], the IC50 ([1]; R20291 strain, read-out: IC50 against R20291 strain) is listed as 1.8 µM and the IC50 [3] is listed as 270 µM.

For `C[C@H](CCC(=O)O)[C@H]1CC[C@H]2[C@@H]3[C@H](O)C[C@@H]4C[C@H](O)CC[C@]4(C)[C@H]3CC[C@]12C` [chenodeoxycholate], the Ki [2] is listed as 378 µM.

For `C[C@H](CCC(=O)Nc1cccc(S(=O)(=O)O)c1)[C@H]1CC[C@H]2[C@@H]3[C@H](O)C[C@@H]4C[C@H](O)CC[C@]4(C)[C@H]3CC[C@]12C` [chenodeoxycholic analog of CamSA], the “Potency relative to the cholate derivative CamSA (less potent)” value [6] is given as “approximately 100 fold” and the IC50 [3] is given as 6500 µM.
